Test results taken from the NIST ThermoML archive (doi:10.1021/je500455u).
Numbers after ± are expanded uncertainties.

Settings: 101.33 kPa, Liquid, Vibrating tube method

mass density (298.15 K) [kg/m3] | mass density (278.15 K) [kg/m3] | mass density (283.15 K) [kg/m3] | mass density (288.15 K) [kg/m3] | mass density (293.15 K) [kg/m3] | mass density (303.15 K) [kg/m3] | mass density (308.15 K) [kg/m3] | mass density (313.15 K) [kg/m3] | mass density (318.15 K) [kg/m3] | mass density (323.15 K) [kg/m3] | mass density (328.15 K) [kg/m3] | mass density (333.15 K) [kg/m3] | mass density (338.15 K) [kg/m3] | mass density (343.15 K) [kg/m3] | SMILES
1604.84 ± 0.78 |  |  |  |  |  |  |  |  |  |  |  |  |  | OC(C(F)(F)F)C(F)(F)F [1,1,1,3,3,3-hexafluoro-2-propanol]
786.58 ± 0.23 |  |  |  |  |  |  |  |  |  |  |  |  |  | CO [methanol]
1786.6 ± 1 | 1841 ± 1 | 1827.6 ± 1 | 1814 ± 1 | 1800.4 ± 1 | 1772.7 ± 1 | 1758.7 ± 0.9 | 1744.5 ± 0.9 | 1730.3 ± 0.9 | 1715.8 ± 0.9 | 1701.2 ± 0.9 | 1686.4 ± 0.9 | 1671.5 ± 0.9 | 1656.3 ± 0.8 | FC(F)(F)C1(F)C(F)(F)C(F)(F)C(F)(F)C(F)(F)C1(F)F [perfluoro(methylcyclohexane)]
1684.4 ± 0.9 | 1742.5 ± 0.9 | 1728.3 ± 0.9 | 1713.8 ± 0.9 | 1699.2 ± 0.9 | 1669.4 ± 0.9 | 1654.1 ± 0.8 | 1638.6 ± 0.8 | 1622.9 ± 0.8 | 1606.4 ± 0.8 | 1590.5 ± 0.8 |  |  |  | FC(F)(F)C(F)(F)C(F)(F)C(F)(F)C(F)(F)C(F)(F)F [perfluorohexane]
